Each block holds one molecule with its values, some of them ahead of it.
Assays:
TOP1cc = molecular target: T1, TOP1cc (Homo sapiens, UniProt P11387); test: RADAR assay of TOP1cc accumulation; assay type: cell-based; conditions: HEK293 cells, 1 μM CPT for 1 hour, positive control
T1 construct: endogenous in cells; host or cells: HEK293
T1 sequence (P11387 2-765 limits assumed): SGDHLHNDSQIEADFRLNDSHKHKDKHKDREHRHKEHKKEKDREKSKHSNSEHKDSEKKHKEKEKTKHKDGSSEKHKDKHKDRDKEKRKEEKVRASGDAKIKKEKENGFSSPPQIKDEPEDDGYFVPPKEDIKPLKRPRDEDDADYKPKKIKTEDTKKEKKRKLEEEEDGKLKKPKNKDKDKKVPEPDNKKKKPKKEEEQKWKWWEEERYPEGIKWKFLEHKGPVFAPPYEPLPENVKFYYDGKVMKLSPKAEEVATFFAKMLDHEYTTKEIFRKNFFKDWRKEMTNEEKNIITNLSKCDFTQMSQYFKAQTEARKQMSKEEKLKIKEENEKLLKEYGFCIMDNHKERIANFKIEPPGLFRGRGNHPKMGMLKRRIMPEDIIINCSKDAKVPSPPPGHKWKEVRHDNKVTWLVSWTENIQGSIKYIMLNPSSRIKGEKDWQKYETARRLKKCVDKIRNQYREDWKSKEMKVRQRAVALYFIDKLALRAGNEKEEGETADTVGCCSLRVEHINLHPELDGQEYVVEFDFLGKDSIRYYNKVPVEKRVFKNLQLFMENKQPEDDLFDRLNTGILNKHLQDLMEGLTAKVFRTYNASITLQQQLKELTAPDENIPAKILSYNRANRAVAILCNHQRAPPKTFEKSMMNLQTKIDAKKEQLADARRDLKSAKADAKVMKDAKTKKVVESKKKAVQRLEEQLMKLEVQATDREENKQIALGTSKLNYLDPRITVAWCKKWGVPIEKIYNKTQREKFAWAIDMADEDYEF
Procedure: Treatment with 1 μM CPT for 1 hour was used as a positive control for TOP1cc induction. Double-stranded (ds)DNA is used as a loading control. […] FIG. 1C, Quantification of Figure 1A (error bars represent mean ±SEM; n=3; ***P<0.001, **P<0.01; Student's t-test).
Cells were grown to ˜70% confluency then lysed in M buffer (MB), containing 6 M guanidine thiocyanate, 10 mM Tris—HCl (pH 6.8), 20 mM EDTA, 4% Triton X-100, 1% N-lauroylsarcosine and 1% dithiothreitol. DNA was precipitated by adding 100% ethanol, then washed three times in wash buffer (20 mM Tris—HC1 pH 7.4, 150 mM NaCl and 50% ethanol), and solubilized in 8 mM NaOH. […] For TOP1ccs, samples were digested with Benzonase for 30 minutes at 37° C. and analysed by slot blot analysis on a Nitrocellulose membrane.
By lysing cells in chaotropic salts (6M guanidium isothiocyanate), detergents (4% Triton X-100 and 1% N-lauroylsarcosine), and a reducing agent (1% DTT), all molecular interactions, other than covalent interactions, are disrupted.

SUMOylated TOP1 = test: Denaturing immunoprecipitation of YFP-TOP1, SUMO immunoblot; assay type: cell-based, human; conditions: HEK293 cells, short treatment with a low dose (25 nM, 1 hour)
Procedure: FIG. 9A, Immunoblot analysis of SUMO1 & SUMO2/3 after denaturing immunoprecipitation of YFP-TOP1 from HEK293 cells treated or not with CPT (25 nM) for 1 or 24 hours. […] Asterisks indicate SUMOylated TOP1.
(§2) Cells were lysed in IP lysis buffer (50 mM Tris, pH 7.4, 150 mM NaCl, 1 mM EDTA, 0.5% Triton X-100) or IP denaturing buffer (i.e. IP lysis buffer containing 1% SDS) supplemented with protease and phosphatase inhibitors and incubated on ice for 10 min. Denaturing IPs were quenched with Triton X-100 (to a final concentration of 1%). Chromatin was pelleted by centrifugation for 5 min at 1,000×g and then digested with Benzonase at room temperature in Benzonase buffer (2 mM MgCl2, 50 mM Tris, pH 7.4, 150 mM NaCl). Lysates were incubated with anti-FLAG M2 agarose (Sigma-Aldrich), Strep-Tactin Sepharose (IBA), or GFP-trap agarose (Chromotek) for 1-2 h on a rotator at 4° C., washed three times with IP wash buffer (150 mM NaCl, 50 mM Tris-HC1; 0.5 mM EDTA), and resuspended in 2× Laemmli buffer.

[1] = molecular target: T2, interaction between TEX264 and TOP1 (Homo sapiens, UniProt P11387); test: Co-immunoprecipitation of TEX264-FLAG with TOP1; assay type: cell-based; conditions: HEK293 cells
T2 construct: FLAG immunoprecipitates prepared from HEK293 cells transiently expressing TEX264WT-FLAG cDNA or EV; expressed in transfected cells; host or cells: HEK293, transiently transfected with pCDNA3.1 TEX264-FLAG
T2 sequence (P11387 2-765 limits assumed): T1 sequence (P11387 2-765 limits assumed)
Procedure: FIG. 2D, FLAG immunoprecipitates prepared from HEK293 cells transiently expressing TEX264WT-FLAG cDNA or EV, treated with CPT (25 nM) or DMSO for 1 hour. FIG. 2E, Immunoblots of anti-Strep-tag immunoprecipitates prepared from wild-type (WT) or ΔTEX264 HEK293 cells expressing p97-Strep-Myc.
FIG. 7G, Immunoblot analysis of TEX264-FLAG immunoprecipitates prepared from HEK293 cells treated with the indicated doses of CPT for 1 hour.
as §2

[2] = tested on: metastatic colorectal cancer; conditions: patients with metastatic colorectal cancer; cited from earlier work
HEK293 cells = test: Puromycin dose required to kill wild-type cells; assay type: cell-based, Human
Procedure: (§1) To generate CRISPR-Cas9 TEX264 knockout cells, two plasmids —a CRISPR/Cas9 KO plasmid containing guide RNA targeting TEX264 (sc-417333), and a homology directed repair plasmid containing a puromycin resistance cassette (sc-417333-HDR)—were purchased from Santa Cruz. 2.5 μg of each plasmid was transfected into early-passage HEK293, HeLa, and U2OS cells using Fugene HD (Promega). After 72 hours, media supplemented with puromycin was added to the cells. The puromycin dose required to kill wild-type cells was determined to be: 1.25 μg/ml for HEK293 cells, 0.6 μg/ml for HeLa cells, and 1 μg/ml for U2OS cells. After 72 hours, the puromycin-containing media was removed and cells were sorted using a cell sorter into single-cell populations on a 96-well plate. TEX264 expression was analysed by immunoblotting. Multiple clones of each cell line showing loss of all detectable TEX264 were selected for subsequent analysis.

HeLa cells = test: Puromycin dose required to kill wild-type cells; assay type: cell-based, Human
Procedure: as §1

U2OS cells = test: Puromycin dose required to kill wild-type cells; assay type: cell-based, Human
Procedure: as §1

[3] = molecular target: T3, TOP1 cleavage complexes purified from HEK293 cells by CsCl-gradient fractionation
T3 chain: T1 sequence (P11387 2-765 limits assumed)

[4] = molecular target: T4, endogenous p97 of HEK293 cells (human, UniProt P55072 2-806); test: anti-Strep-tag immunoprecipitation from HEK293 cells, immunoblot (FIG. 10c)
T4 construct: Detected in immunoprecipitates by mass spectrometry or immunoblot; also called AAA ATPase p97
T4 sequence (P55072 2-806 limits assumed): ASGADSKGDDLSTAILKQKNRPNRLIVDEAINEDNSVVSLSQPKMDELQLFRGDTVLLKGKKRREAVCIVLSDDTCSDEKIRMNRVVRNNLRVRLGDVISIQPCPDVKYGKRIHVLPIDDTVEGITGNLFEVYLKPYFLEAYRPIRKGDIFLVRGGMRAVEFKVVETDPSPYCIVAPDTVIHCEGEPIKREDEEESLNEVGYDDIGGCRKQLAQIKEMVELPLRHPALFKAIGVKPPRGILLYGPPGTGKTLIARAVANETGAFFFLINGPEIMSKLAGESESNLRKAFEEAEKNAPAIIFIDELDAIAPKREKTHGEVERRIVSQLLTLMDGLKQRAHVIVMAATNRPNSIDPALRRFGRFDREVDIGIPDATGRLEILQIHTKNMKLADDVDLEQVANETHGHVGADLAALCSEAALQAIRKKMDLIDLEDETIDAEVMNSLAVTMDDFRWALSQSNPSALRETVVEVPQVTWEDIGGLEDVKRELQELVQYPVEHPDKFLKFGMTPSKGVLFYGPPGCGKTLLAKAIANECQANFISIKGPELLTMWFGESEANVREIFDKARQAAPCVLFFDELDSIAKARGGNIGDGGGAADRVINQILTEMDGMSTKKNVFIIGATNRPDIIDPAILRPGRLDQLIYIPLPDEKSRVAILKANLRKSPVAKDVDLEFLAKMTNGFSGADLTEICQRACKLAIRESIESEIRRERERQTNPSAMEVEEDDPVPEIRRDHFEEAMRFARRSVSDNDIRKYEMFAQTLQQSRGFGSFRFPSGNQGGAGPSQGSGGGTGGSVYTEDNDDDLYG
Procedure: FIG. 10A, Colony forming assay to assess the survival of HeLa cells transfected with the indicated siRNAs following a 24 hour treatment with the indicated doses of CPT. FIG. 10B, Immunoblots to confirm depletion efficacy in A. FIG. 10C, Analysis of anti-Strep-tag immunoprecipitates prepared from HEK293 cells expressing SPRTN-SSH, transfected with the indicated siRNA. FIG. 10D, Total DNA-protein crosslinks (DPCs) isolated by RADAR from HEK293 cells treated with the indicated siRNAs. DPCs were resolved by SDS-PAGE and visualised by silver staining. FIG. 10E, Quantification of FIG. 10D (error bars represent mean ±SD; n=2; **P<0.01; ns, not significant; Student's t-test). FIG. 10F, In vitro TOP1cc repair assay. TOP1ccs were purified by CsCl-gradient centrifugation from HEK293 cells, incubated with the indicated purified proteins (100 nM/reaction), slot-blotted onto a nitrocellulose membrane and probed with a […] -specific antibody.
To explore how TEX264 regulates SPRTN-dependent TOP1cc processing, SPRTN-SSH was immunoprecipitated from wild-type and TEX264-depleted HEK293 cell extracts. […] As p97 exists in hexameric complexes, it can bind multiple cofactors at a time (Buchberger et al., 2015; Hänzelmann et al., 2011). […]

Molecule: CC[C@@]1(O)C(=O)OCc2c1cc1n(c2=O)Cc2cc3ccccc3nc2-1 [CPT, Camptothecin]
TOP1cc accumulation (TOP1cc): substantial TOP1cc accumulation
SUMOylated TOP1, particularly SUMO1 (SUMOylated TOP1): moderate increases
co-immunoprecipitation of TOP1 with p97 or TEX264 ([1]; 1 μM CPT): did not co-immunoprecipitate
interaction between TEX264 and TOP1 ([1]; CPT 25 nM for 1 hour): increased markedly

Molecule: O=c1[nH]cc(F)c(=O)[nH]1 [FU, fluorouracil]
patient response rates [2]: 10-15%

Molecule: COc1ccc(C[C@H](N)C(=O)N[C@H]2[C@@H](O)[C@H](n3cnc4c(N(C)C)ncnc43)O[C@@H]2CO)cc1 [puromycin]
puromycin dose required to kill wild-type cells (HEK293 cells): 1.25 µg/mL
puromycin dose required to kill wild-type cells (HeLa cells): 0.6 µg/mL
puromycin dose required to kill wild-type cells (U2OS cells): 1 µg/mL

binding result [4]: binds
B1: SPRTN-SSH expressed in HEK293 cells (enzyme)
chain: MDDDLMLALRLQEEWNLQEAERDHAQESLSLVDASWELVDPTPDLQALFVQFNDQFFWGQLEAVEVKWSVRMTLCAGICSYEGKGGMCSIRLSEPLLKLRPRKDLVETLLHEMIHAYLFVTNNDKDREGHGPEFCKHMHRINSLTGANITVYHTFHDEVDEYRRHWWRCNGPCQHRPPYYGYVKRATNREPSAHDYWWAEHQKTCGGTYIKIKEPENYSKKGKGKAKLGKEPVLAAENKDKPNRGEAQLVIPFSGKGYVLGETSNLPSPGKLITSHAINKTQDLLNQNHSANAVRPNSKIKVKFEQNGSSKNSHLVSPAVSNSHQNVLSNYFPRVSFANQKAFRGVNGSPRISVTVGNIPKNSVSSSSQRRVSSSKISLRNSSKVTESASVMPSQDVSGSEDTFPNKRPRLEDKTVFDNFFIKKEQIKSSGNDPKYSTTTAQNSSSSSSQSKMVNCPVCQNEVLESQINEHLDWCLEGDSIKVKSEESL
notes: also called SPRTN-wt-cSSH; not shown: C-terminal SSH tag (pulled down by anti-Strep-tag)
in vitro TOP1cc repair assay (slot blot with TOP1cc-specific antibody), SPRTN alone [3]: SPRTN alone could process only a small proportion of TOP1ccs
in vitro TOP1cc repair assay (slot blot with TOP1cc-specific antibody), TOP1ccs pre-incubated with p97 and TEX264 [3]: this activity was enhanced when TOP1ccs were pre-incubated with p97 and TEX264 prior to the addition of SPRTN
